The results in this text go back to ChEMBL document CHEMBL4219121, “Synthesis, antitumor activity and DNA binding features of benzothiazolyl and benzimidazolyl substituted isoindolines” (Bioorg Med Chem, 2018).

pIC50: −log10 of the molar value. Calls of active or inactive are those of the source. The calls are words filed in the database; no cut-off is given here. Some results are limits rather than exact numbers.

Data set [1] deals with MCF7. Description: Antiproliferative activity against human MCF7 cells after 72 hrs by MTT assay. In kind it is functional, cell-based. Particulars: MCF7, 72 h.
The test system of data set [2] is SW-620. Description: Antiproliferative activity against human SW620 cells after 72 hrs by MTT assay. In kind it is functional, cell-based. To be noted: SW-620, 72 h. On the technique in general: Tetrazolium dyes change colour on reduction, which living cells bring about.
Data set [3] concerns HepG2. The experiment in a line: Antiproliferative activity against human HepG2 cells after 72 hrs by MTT assay. Particulars: HepG2, 72 h. In kind it is functional, cell-based.
Data set [4] deals with HeLa. Description: Antiproliferative activity against human HeLa cells after 72 hrs by MTT assay. It is filed as functional, cell-based.
Data set [5] has as its system BJ. The experiment in a line: Antiproliferative activity against human BJ cells after 72 hrs by MTT assay. It is filed as cell-based.
Data set [6] relates to Calf thymus DNA. The experiment in a line: Binding affinity to calf thymus DNA assessed as change in melting temperature at drug/DNA ratio of 0.5 by spectrophotmetric method. It is filed as nucleic-acid assay. Particulars: Bos taurus.
The test system of data set [7] is Calf thymus DNA. Description: Binding affinity to calf thymus DNA assessed as change in melting temperature at drug/DNA ratio of 1 by spectrophotmetric method. In kind it is nucleic-acid assay. Particulars: Bos taurus.
Data set [8] deals with Calf thymus DNA. Description: Binding affinity to calf thymus DNA at 50 uM by circular dichroism spectral analysis. To be noted: Bos taurus. It is filed as nucleic-acid assay.
Data set [9] in a line: Drug uptake in human Caki2 cells at 50 uM measured after 5 hrs by Phalloidin CruzFluorTM 488 conjugate/propidium iodide staining based fluorescence microscopic analysis. It is filed as ADME, cell-based. To be noted: caki-2, 5 h.
A short description of data set [10]: Drug uptake in nucleus of human Caki2 cells at 50 uM measured after 5 hrs by Phalloidin CruzFluorTM 488 conjugate/propidium iodide staining based fluorescence microscopic analysis. It is filed as ADME, subcellular. To be noted: caki-2, 5 h.
A short description of data set [11]: Drug uptake in cytoplasm of human Caki2 cells at 50 uM measured after 5 hrs by Phalloidin CruzFluorTM 488 conjugate/propidium iodide staining based fluorescence microscopic analysis. It is filed as ADME, subcellular. Particulars: caki-2, 5 h.
The subject of data set [12] is CAKI-2. Description: Cytotoxicity against human Caki2 cells after 72 hrs by MTT assay. Particulars: CAKI-2, 72 h. In kind it is functional, cell-based.
For data set [13], the target named is DNA topoisomerase 2-alpha (Homo sapiens) (UniProt P11388). Description: Poison activity at human topoisomerase2 assessed as accumulation of linear DNA at 10 to 50 uM using supercoiled pUC19 as substrate pretreated with substrate for 45 mins followed by […] measured by ethidium bromide staining based agarose gel electrophoresis.
Sequence of DNA topoisomerase 2-alpha (Homo sapiens) (P11388 whole entry): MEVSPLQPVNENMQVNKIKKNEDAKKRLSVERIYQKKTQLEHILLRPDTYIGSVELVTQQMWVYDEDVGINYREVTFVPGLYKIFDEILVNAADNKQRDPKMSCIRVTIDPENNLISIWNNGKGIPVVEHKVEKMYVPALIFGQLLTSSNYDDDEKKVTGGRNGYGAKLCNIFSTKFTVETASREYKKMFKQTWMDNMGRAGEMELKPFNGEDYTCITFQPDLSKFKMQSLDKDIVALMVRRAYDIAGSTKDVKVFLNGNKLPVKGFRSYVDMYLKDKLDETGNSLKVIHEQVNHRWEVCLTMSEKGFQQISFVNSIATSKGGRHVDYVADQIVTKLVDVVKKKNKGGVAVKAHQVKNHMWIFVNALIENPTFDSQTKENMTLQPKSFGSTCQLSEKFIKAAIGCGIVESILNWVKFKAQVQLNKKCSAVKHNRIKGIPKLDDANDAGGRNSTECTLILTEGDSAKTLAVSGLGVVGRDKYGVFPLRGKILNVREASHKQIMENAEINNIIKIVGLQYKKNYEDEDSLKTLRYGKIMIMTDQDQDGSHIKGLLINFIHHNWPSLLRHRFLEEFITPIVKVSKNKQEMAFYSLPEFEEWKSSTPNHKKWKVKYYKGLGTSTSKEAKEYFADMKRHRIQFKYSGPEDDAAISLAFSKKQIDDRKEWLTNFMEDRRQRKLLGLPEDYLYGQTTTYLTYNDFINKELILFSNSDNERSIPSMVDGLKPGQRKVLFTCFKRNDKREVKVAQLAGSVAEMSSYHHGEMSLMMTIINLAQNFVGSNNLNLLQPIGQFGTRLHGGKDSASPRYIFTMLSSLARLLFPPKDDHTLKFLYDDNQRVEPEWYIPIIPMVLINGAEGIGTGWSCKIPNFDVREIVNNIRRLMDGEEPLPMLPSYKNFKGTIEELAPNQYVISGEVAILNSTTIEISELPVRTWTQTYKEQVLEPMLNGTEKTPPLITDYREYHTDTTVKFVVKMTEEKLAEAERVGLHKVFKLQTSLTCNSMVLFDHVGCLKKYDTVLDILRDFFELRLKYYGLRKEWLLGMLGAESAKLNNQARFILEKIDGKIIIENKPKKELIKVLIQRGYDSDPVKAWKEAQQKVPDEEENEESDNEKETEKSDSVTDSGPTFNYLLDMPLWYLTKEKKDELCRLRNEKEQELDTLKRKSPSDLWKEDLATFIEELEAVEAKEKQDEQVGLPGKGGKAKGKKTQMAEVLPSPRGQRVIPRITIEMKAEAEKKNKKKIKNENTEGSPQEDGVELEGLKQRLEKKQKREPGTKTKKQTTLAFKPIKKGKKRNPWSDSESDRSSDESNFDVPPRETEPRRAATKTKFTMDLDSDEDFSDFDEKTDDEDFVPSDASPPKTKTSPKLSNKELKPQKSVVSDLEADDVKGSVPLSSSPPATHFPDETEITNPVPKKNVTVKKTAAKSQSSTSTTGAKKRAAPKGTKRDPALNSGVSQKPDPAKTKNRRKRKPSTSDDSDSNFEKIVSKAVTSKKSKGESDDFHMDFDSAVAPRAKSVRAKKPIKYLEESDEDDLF
Data set [14] has as its system Calf thymus DNA. The experiment in a line: Binding affinity to calf thymus DNA assessed as change in melting temperature at drug/DNA ratio of 0.25 by spectrophotmetric method. It is filed as nucleic-acid assay. To be noted: Bos taurus.
Data set [15] concerns the target T1, DNA topoisomerase 1 (Homo sapiens) (UniProt P11387).
T1 sequence (whole entry): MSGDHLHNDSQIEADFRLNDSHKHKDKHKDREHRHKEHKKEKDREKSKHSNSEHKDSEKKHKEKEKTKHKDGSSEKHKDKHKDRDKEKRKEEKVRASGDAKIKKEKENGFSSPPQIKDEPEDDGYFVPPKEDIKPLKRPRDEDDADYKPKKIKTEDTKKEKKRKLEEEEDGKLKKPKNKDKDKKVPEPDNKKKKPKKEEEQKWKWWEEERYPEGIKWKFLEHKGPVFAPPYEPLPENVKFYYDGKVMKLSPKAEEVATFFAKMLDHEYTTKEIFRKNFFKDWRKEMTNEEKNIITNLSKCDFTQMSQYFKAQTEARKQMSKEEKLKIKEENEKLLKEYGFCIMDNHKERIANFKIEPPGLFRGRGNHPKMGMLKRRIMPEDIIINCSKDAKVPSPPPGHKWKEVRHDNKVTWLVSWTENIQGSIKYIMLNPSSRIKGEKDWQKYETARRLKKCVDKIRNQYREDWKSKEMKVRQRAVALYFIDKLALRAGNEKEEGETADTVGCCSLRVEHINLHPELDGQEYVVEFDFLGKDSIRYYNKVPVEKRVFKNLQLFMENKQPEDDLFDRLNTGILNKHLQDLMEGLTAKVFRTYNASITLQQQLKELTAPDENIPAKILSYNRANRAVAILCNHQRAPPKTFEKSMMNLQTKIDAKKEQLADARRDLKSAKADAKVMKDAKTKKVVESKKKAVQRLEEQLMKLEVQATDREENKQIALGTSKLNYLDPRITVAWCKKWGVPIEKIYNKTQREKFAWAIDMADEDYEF
The experiment in a line: Inhibition of human topoisomerase1-mediated DNA relaxation assessed as DNA intercalation at 5 to 50 uM using supercoiled pUC19 as substrate pretreated with substrate for 45 mins followed by enzyme addition measured by agarose gel electrophoresis.

Data set [16] concerns the target T1, DNA topoisomerase 1 (Homo sapiens). Description: Poison activity at human topoisomerase1 assessed as accumulation of nicked DNA at 5 to 50 uM using supercoiled pUC19 as substrate pretreated with substrate for 45 mins followed by enzyme addition measured by agarose gel electrophoresis.
The target is the same in data set [17]. The experiment in a line: Poison activity at human topoisomerase1 assessed as accumulation of nicked DNA at 10 uM using supercoiled pUC19 as substrate pretreated with substrate for 45 mins followed by enzyme addition measured by agarose gel electrophoresis relative to control.
Data set [18] shares this target. The experiment in a line: Poison activity at human topoisomerase1 assessed as accumulation of nicked DNA at 20 uM using supercoiled pUC19 as substrate pretreated with substrate for 45 mins followed by enzyme addition measured by agarose gel electrophoresis relative to control.
Data set [19] shares this target. The experiment in a line: Poison activity at human topoisomerase1 assessed as accumulation of nicked DNA at 50 uM using supercoiled pUC19 as substrate pretreated with substrate for 45 mins followed by enzyme addition measured by agarose gel electrophoresis relative to control.
In data set [20] the test system is Calf thymus DNA. Description: Binding affinity to calf thymus DNA at 1 to 25 uM by circular dichroism spectral analysis. It is filed as nucleic-acid assay. To be noted: Bos taurus. For orientation: CD spectra are sensitive to the conformation of chiral molecules.

One may read the pIC50 as −log10 of the IC50, conventionally taken in molar units. Higher therefore signals a low IC50. Broadly, the ΔTm is the change in melting temperature against a reference sample. With `c1ccc2c(c1)CN(c1nc3ccccc3s1)/C2=N/c1nc2ccccc2s1`, the pIC50 was 7.10 in data set [1]; 5.16 in data set [2]; 6.09 in data set [3]; 5.33 in [4]; 5.31 in [5]; 4.95 in [12]. Besides, the ΔTm in [6] was -1.3 °C; in data set [7], -2.2 °C. In data set [8], the result was inactive. Also, the Drug uptake result in [9], in data set [10] and in [11] was “Active” each time.

Consider `COc1cc([C@@H]2c3cc4c(cc3[C@@H](O[C@@H]3O[C@@H]5CO[C@@H](C)O[C@H]5[C@H](O)[C@H]3O)[C@H]3COC(=O)[C@H]23)OCO4)cc(OC)c1O`, for which the result in data set [13] was Active.

As to `CC(C)NC(=N)c1ccc2nc(N3Cc4ccccc4C3=O)[nH]c2c1`, the pIC50 in data set [1] was 6.03; in data set [2], 4.15; in data set [3], under 4.00; in data set [4], 4.07; in [5], 5.24.

In the case of `CC(C)NC(=N)c1ccc2nc(/N=C3\c4ccccc4CN3c3nc4ccc(C(=N)NC(C)C)cc4s3)sc2c1.Cl.Cl`, the pIC50 in data set [1] is 4.05; in data set [2], 4.31; in [3] it was 4.16; in data set [4] it was 4.28; in data set [5], 5.33; in data set [12] it was 4.40. Also, the ΔTm in [14] is 12.7 °C; in data set [6], 18 °C. Further, the “inhibition (qualitative)” value in data set [15] was “Active”. Also, the Drug uptake result in data set [9], in [10] and in data set [11] was “Active” in each case.

Regarding `N=C(N)c1ccc2nc(N3Cc4ccccc4C3=O)[nH]c2c1`, the pIC50 was under 4.00 in [1]; under 4.00 in data set [2]; 4.04 in data set [3]; 4.28 in [4]; 4.33 in [5].

Consider `N#Cc1ccc2nc(N3Cc4ccccc4C3=O)sc2c1`, for which the pIC50 was 5.00 in [1]; under 4.00 in data set [2]; 4.21 in data set [3]; 4.26 in data set [4]; 4.35 in data set [5].

For the compound `CC[C@@]1(O)C(=O)OCc2c1cc1n(c2=O)Cc2cc3ccccc3nc2-1`, in data set [16], the outcome was Active. Besides, the fold change (FC) is 2 in data set [17], 2.3 to 2.9 in data set [18] and 2.5 to 3.2 in data set [19].

Consider `CC(C)NC(=N)c1ccc2nc(/N=C3\c4ccccc4CN3c3nc4ccc(C(=N)NC(C)C)cc4[nH]3)[nH]c2c1.Cl.Cl`, for which the pIC50 in data set [1] was 4.18; in data set [2], under 4.00; in data set [3], 4.07; in data set [4], 4.01; in data set [5], under 4.00; in [12], under 4.00. The results for the ΔTm in data set [14] and in [6] were 7 °C and 12.9 °C, respectively. Besides, the outcome in data set [20] and in [16] was Active. Also, the “inhibition (qualitative)” value in data set [15] is “Active”. Besides, in data set [19], the fold change (FC) worked out at 2.2. Also, the Drug uptake entry in [9], in [10] and in [11] was “Active” in each case.

Regarding `N#Cc1ccc2nc(/N=C3\c4ccccc4CN3c3nc4ccc(C#N)cc4s3)sc2c1`, the figures for the ΔTm in [6] and in data set [7] were -1.1 °C and -0.7 °C, respectively. Moreover, the outcome in data set [8] was inactive. Further, the Drug uptake result in data set [9], in data set [10] and in data set [11] was “Active” in each case. Also, the pIC50 in [12] was 4.66.

In the case of `Cl.Cl.c1ccc2c(c1)CN(c1nc3ccc(C4=NCCN4)cc3s1)/C2=N/c1nc2ccc(C3=NCCN3)cc2s1`, the pIC50 was 5.83 in data set [1]; under 4.00 in data set [2]; 4.46 in [3]; 4.13 in data set [4]; 4.50 in data set [5]; 4.90 in [12]. Also, the ΔTm worked out at 6.8 °C in data set [14], 10.5 °C in data set [6] and 12.2 °C in [7]. Moreover, the outcome in data set [20] and in data set [16] was Active. In addition, the “inhibition (qualitative)” value in data set [15] is “Active”. The fold change (FC) is 1.5 to 3.7 in data set [17], 3.7 to 9 in data set [18] and 3.5 in data set [19]. For the same compound, the Drug uptake result in data set [9], in data set [10] and in [11] was “Active” throughout.

As for `c1ccc2c(c1)CN(c1nc3ccccc3[nH]1)/C2=N/c1nc2ccccc2[nH]1`, the pIC50 in data set [1] is 5.13; in data set [2], under 4.00; in data set [3] it was 5.11; in data set [4] it was 5.03; in data set [5], 4.65. Besides, the figures for the ΔTm in data set [14], in data set [6] and in data set [7] were -0.6 °C, -0.7 °C and -0.5 °C, respectively.

As for `N#Cc1ccc2nc(/N=C3\c4ccccc4CN3c3nc4ccc(C#N)cc4[nH]3)[nH]c2c1`, the pIC50 in data set [1] was 7.70; in data set [2] it was 4.16; in data set [3], 4.75; in data set [4] it was 4.12; in data set [5], under 4.00; in data set [12] it was under 4.00. Besides, the ΔTm was -0.4 °C in data set [6] and -0.5 °C in data set [7]. Further, the result in data set [8] was inactive. The Drug uptake result in data set [9], in data set [10] and in data set [11] was “Active” each time.

With `N#Cc1ccc2nc(N3Cc4ccccc4C3=O)[nH]c2c1`, the pIC50 in data set [1] is 5.30; in data set [2], under 4.00; in [3] it was 5.00; in data set [4] it was 4.62; in data set [5], 4.80.

`O=C1c2ccccc2CN1c1nc2ccc(C3=NCCN3)cc2[nH]1`: the pIC50 in data set [1] is 5.54; in data set [2], 5.06; in data set [3], 4.78; in [4], 5.21; in data set [5], 5.33.
